# Earlier results in patent US20080114046A1, “Pharmaceutical Combination of Angiotensin II Antagonists and Angiotensin I Converting Enzyme Inhibitors” (Boehringer Ingelheim International GmbH, priority 2002, published 2008).
# Experiments:
# [1] = normotensive patients with diabetic nephropathy; losartan added to enalapril
# [2] = first clinical trials
# [3] = HOPE study, treatment with ACE inhibitor ramipril
SMILES,antiproteinuric effect of enalapril [1],renoprotective effect [2],reduction of the risk of the combined primary cardiovascular outcome [3] [%]
CCCCc1nc(Cl)c(CO)n1Cc1ccc(-c2ccccc2-c2nn[nH]n2)cc1 [losartan],potentiated,renoprotective effect,
CCOC(=O)[C@H](CCc1ccccc1)N[C@@H](C)C(=O)N1[C@H](C(=O)O)C[C@@H]2CCC[C@@H]21 [ramipril],,,22
CCCCC1=NC2(CCCC2)C(=O)N1Cc1ccc(-c2ccccc2-c2nnn[nH]2)cc1 [irbesartan],,renoprotective effect,
